The values that follow are results of earlier work, collected in patent US20190275033A1 (Boehringer Ingelheim International GmbH, priority 2016, published 2019).

Each structure is given as a SMILES string.

The data set deals with IPF patients. Particulars: cited from earlier work.

`Cc1ccc(=O)n(-c2ccccc2)c1` [pirfenidone, 5-methyl-1-phenyl-2(1H)-Pyridinone]: the “primary endpoint of change from baseline FVC % predicted” value (ASCEND Phase III trial) is on record as “met the primary endpoint”. For the same compound, the “primary FVC lung function endpoint” value (international Phase III CAPACITY program) is listed as “efficacy on the primary FVC lung function endpoint in only one of two confirmatory trials”. Further, the “decline of vital capacity” value (two local trials, Japan) was “reduced decline”.
